# Laboratory results reported in US20030144350A1, “Fat accumulation-modulation compounds” (AdipoGenix, Inc., priority 2001, published 2003).
# Like-named read-outs stand apart in the source and are kept apart here.
# Experiments:
# [1] = mice, single injections; cited from earlier work
# [2] = system: primary human subcutaneous preadipocytes; assay: High throughput screening of fluorescent fatty acid (FA*) accumulation in differentiating human preadipocytes; type: cell-based
# Description: Growth medium was changed every three days. […] Cell plates were prewashed with FAB+, and then FA* was added. Cells were incubated with FA* for four hours, and then postwashed with FAB+ to remove unincorporated FA*. Cellular fluorescence of triglyceride droplets that have incorporated FA* was measured on a microplate reader. Efficacy of compounds on inhibiting FA* accumulation was determined by the following calculation: […]
# [3] = system: primary human subcutaneous preadipocytes; conditions: for % Toxicity: Alamar Blue
# Description: Up to five cell strains of banked primary human subcutaneous preadipocytes were used for high throughput screening. Cells were grown in tissue culture flasks, maintained under standard incubation conditions (5% carbon dioxide, 37° C.) and split evenly when 100% confluent into two new tissue culture flasks (one cell division) in growth medium. Cells were split up to four times to produce enough cells for screening.
# Two to five days before the experiment, adhered cells were detached with trypsin/EDTA, combined and seeded into 384-well plates at 100% confluency. On day zero, cells were incubated with […] to induce differentiation of preadipocytes into adipocytes (characterized by cell rounding, formation of triglyceride droplets, etc.). Growth medium was changed every three days. On day six, cells were incubated in triplicate with test compounds (supplied by ComGenex International, Inc., South San Francisco, USA) at various concentrations.
# Compounds were first diluted in a phosphate-buffered saline solution with 0.1% fatty-acid free bovine serum albumin (BSA, to aid compound suspension), and then added to cells. Negative control cells were treated with DMSO, the solvent used for initially dissolving compounds, at 0.1% final concentration.
# Subsequent determination of compound toxicity was measured by incubating cells with Alamar Blue (an indicator of cellular viability, purchased from BioSource International Inc., Camarillo, Calif., USA) for three to four hours before measuring fluorescence of the reduced compound. Toxicity of compounds was determined by the following calculation:
# % Toxicity=100-(sample fluorescence/negative control fluorescence*100)
SMILES,food eaten less than untreated littermates [1] [%],efficacy ([2]; 10 μM) [%],"Emax at 0.3 µM ([2]; Homo sapiens, FCCP 0.3 uM, inhibition of FA* accumulation, read-out: % Efficacy) [%]","Emax at 1 µM ([2]; Homo sapiens, FCCP 1 uM, inhibition of FA* accumulation, read-out: % Efficacy) [%]","Emax at 3 µM ([2]; Homo sapiens, FCCP 3 uM, inhibition of FA* accumulation, read-out: % Efficacy) [%]",toxicity ([3]; 10 μM) [%],% Toxicity ([3]; FCCP 0.3 uM) [%],% Toxicity ([3]; FCCP 1 uM) [%],% Toxicity ([3]; FCCP 3 uM) [%]
C=C1C(=O)OC(CCCCCCCC)C1C(=O)O (stereo not drawn) [Compound C75],90,,,,,,,,
"N#CC(C#N)=NNc1ccc(OC(F)(F)F)cc1 [FCCP, Carbonyl cyanide p-(trifluoromethoxy)phenylhydrazone]",,100,42,79,90,100,−1,−4,5
